This note sets out measurements from US12447137B2, “Composition for prevention, amelioration, or treatment of cancer” (EWHA UNIVERSITY—INDUSTRY COLLABORATION FOUNDATION, priority 2019, dated 2025).

In one assay the test system is BT549 cell line. As to the kind of experiment: Clonogenic assay. It is filed as cell-based, human. Particulars: BT549, 10 μM; FIG. 2B. On the procedure: (§1) The breast cancer cell line of Experimental Method 1 was dispensed into a 6-well plate at a density of 1 to 2×10^3 cells/well. After the cells were sufficiently attached, they were treated with the compound of Production Example 6 at a concentration of 0 to 30 μM and cultured for 10 days to 14 days. Next, the cultured cells were fixed with 4% formaldehyde and stained with 1% crystal violet, and the colonies were counted under a microscope.

The test system of the next assay is MDA-MB-231 cell line. Nature of the assay: Clonogenic assay. It is filed as cell-based, human. Particulars: MDA-MB-231, 10 μM; FIG. 2B. On the procedure:
as §1

Assay [1] relates to EMT protein markers α-SMA, Vimentin, ZEB-1 and Slug. As to the kind of experiment: EMT protein marker Western blot, TGF-β1-treated 4T1 cells. Particulars: 4T1, with TGF-β1; FIG. 7A. In kind it is cell-based, mouse. On the procedure: (§2) The culture medium of the breast cancer cell line of Experimental Method 1 was replaced with a serum-free medium. Then, the cells were treated with 2 ng/mL of TGF-β1 and the compound of Preparation Example 6 and cultured for 20 to 24 hours. Thereafter, as described in Experimental Method 3, the expression level of the protein was measured using an antibody specific for the EMT-related protein.
In general terms: In western blotting, separated proteins are transferred to a membrane and probed.

Assay [2] has the same test system. As to the kind of experiment: EMT protein marker Western blot, TGF-β1-treated BT549 cells. In kind it is cell-based, human. Particulars: BT549, with TGF-β1; FIG. 7A. Here is the method:
as §2

Assay [3] has the same test system. As to the kind of experiment: EMT protein marker Western blot, TGF-β1-treated MDA-MB-231 cells. In kind it is cell-based, human. Particulars: MDA-MB-231, with TGF-β1; FIG. 7A. Here is the method:
as §2

In another assay the test system is 4T1 cell line. Nature of the assay: Clonogenic assay. Particulars: 4T1, 10 μM; FIG. 2B. In kind it is cell-based, mouse. Here is the method:
as §1

Assay [4] has as its system p-AMPK (Thr172). Nature of the assay: AMPK activation by p-AMPK (Thr172) Western blot in MDA-MB-231 cells. It is filed as cell-based, human. Particulars: 24 hours. Here is the method:
(§3) [3-1] The breast cancer cell line of Experimental Method 1 above was treated with the compound of Production Example 6 at a concentration of 0 to 30 μM, and then cultured for 24 hours. Thereafter, the cells were harvested and lysed in RIPA buffer, and the protein was electrophoresed by SDS-PAGE, and then the expression level of the protein was analyzed using antibodies specific for AMPK and phospho-AMPK (Thr172). GAPDH or β-actin was used as a loading control for protein quantification.
(§4) [3-2] The three breast cancer cell lines (4T1, BT549, and MDA-MB-231) of Experimental Method 1 were treated with each of the compound of Production Example 6 and 13 compounds, including the compounds of Production Examples 1 to 5 and 8 to 15 having a similar structure (YE-01, 02, 03, 04, 05, 08, 09, 10, 11, 12, 13, 14 and 15), at a concentration of 10 μM, and then cultured for 24 hours. In addition, each of two types of gastric cancer cell lines, brain cancer cell lines and pancreatic cancer cell lines was treated with the compound of Production Example 6 or the compound of Production Example 8 having a similar structure at a concentration of 10 μM and then cultured for 12 hours. Thereafter, the cells were harvested and lysed in RIPA buffer, and the protein was electrophoresed by SDS-PAGE, and then the expression level of the protein was analyzed using antibodies specific for AMPK and phospho-AMPK (Thr172). GAPDH or β-actin was used as a loading control for protein quantification.

The subject of assay [5] is p-AMPK (Thr172). As to the kind of experiment: AMPK activation by p-AMPK (Thr172) Western blot in pancreatic cancer cell lines. In kind it is cell-based, human. Particulars: 10 μM, 12 hours, compared to untreated group. Here is the method: as §4
The test system of a further assay is secreted MMP2 and MMP9. As to the kind of experiment: Secreted MMP2 and MMP9 levels, TGF-β1-treated BT549 cells. In kind it is cell-based, human. Particulars: BT549, with TGF-β1; FIG. 7B. Here is the method: as §2
The test system of assay [6] is p-AMPK (Thr172). Nature of the assay: AMPK activation by p-AMPK (Thr172) Western blot in 4T1 cells. Particulars: 24 hours. In kind it is cell-based, mouse. Here is the method:
as §3, §4

A further assay deals with AMPK. As to the kind of experiment: Cellular thermal shift assay (CTSA) of AMPK protein, Western blot. Particulars: cells treated with compound; AMPK protein alone Tm 50° C.; FIG. 1. In kind it is binding, human. Here is the method: In order to examine whether or not the compound of Production Example 6 and 13 compounds, including the compounds of Production Examples 1 to 5 and 8 to 15 having a similar structure (YE-01, 02, 03, 04, 05, 08, 09, 10, 11, 12, 13, 14 and 15), bind to the AMP binding site of AMPK, cellular thermal shift assay (CTSA) was performed. Specifically, the cultured human breast cancer-derived cell line (BT549 or MDA-MB-231 cell line) was detached from the culture dish using trypsin. The detached cell line was diluted in PBS, and the same amount of the cells were dispensed in each tube for PCR and heated for 3 minutes at a temperature of room temperature to 65° C. After completion of the heating, protein was isolated from the cell line using liquid nitrogen, and Western blot analysis was performed to confirm the temperature at which AMPK would be denatured by heat.

On to `COc1ccc(OC)c(/C=C/C(=O)c2ccc(NS(=O)(=O)c3ccc(Cl)cc3)cc2)c1` [Production Example 6, (E)-4-chloro-N-(4-(3-(2,5-dimethoxyphenyl)acryloyl)phenyl)benzenesulfonamide], for which the colony formation entry in the assay on BT549 cell line, with MDA-MB-231 cell line and in the assay on 4T1 cell line was “significantly reduced” throughout. In addition, the Slug protein result in assay [1], in assay [2] and in [3] was “decreased” each time. The Vimentin protein result in assay [1], in assay [2] and in [3] was “decreased” in each case. The ZEB-1 protein entry in [1], in assay [2] and in assay [3] was “decreased” each time. Besides, the α-SMA protein entry in [1], in assay [2] and in [3] was “decreased” each time. The phospho-AMPK protein result in the assay on p-AMPK (Thr172) [4] (MDA-MB-231, 0 to 30 μM, FIG. 5) is given as “increased in a concentration-dependent manner”; in the assay with p-AMPK (Thr172) [6] (4T1, 0 to 30 μM, FIG. 5), “increased in a concentration-dependent manner”. Also, the p-AMPK level result is “effectively increased” with p-AMPK (Thr172) [4] (MDA-MB-231, 10 μM, FIG. 3B) and “effectively increased” in the assay on p-AMPK (Thr172) [6] (4T1, 10 μM, FIG. 3B). The “expression of p-AMPK” value with p-AMPK (Thr172) [5] is “increased”. In addition, the “level of secreted MMP2” value in the assay on secreted MMP2 and MMP9 is recorded as “significantly decreased”. The “level of secreted MMP9” value in the assay on secreted MMP2 and MMP9 is reported as “significantly decreased”. Besides, in the assay on AMPK, the “Tm value of AMPK protein” value turned out to be 55 °C.
